# Assay: gradient 5% acetonitrile 3 min, to 50% in 2 min, to 85% in 15 min, held 3 min, 100 µL/min
# Conditions: column: Zorbax Extend-C18 2.1 x 50 mm; eluents: water / acetonitrile, 0.1% formic acid
# Outline: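 Retention times of pure standards were taken from adduct peaks that were selected by computer and manually inspected. Over 3 months, mixtures of ~100 molecules were run by HPLC–quadrupole time-of-flight mass spectrometry in positive and negative ionization mode. The Zorbax Extend-C18 column (2.1 × 50 mm, 1.8 μm) ran at 100 μL/min in water and acetonitrile, each containing 0.1% formic acid, with 40 μL dead volume and 900 μL dwell volume.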
row,SMILES,RP-LC retention time
1,Cn1c(=O)oc2cc(-c3noc(-c4ccccc4)n3)ccc21,1010 s
2,COCCCN(CC(=O)N1CCNCC1)C(=O)c1ccc(Br)cc1,603 s
3,Cc1cc2nc(C(=O)Nc3ccc(F)c(F)c3)cc(C)n2n1,986 s
4,O=C(NCc1ccco1)c1csc(-c2ccc(N3CCCCC3)nc2)n1,819 s
5,Cc1noc(C)c1CC(=O)N1CCN(c2ncnc3c2CCC3)CC1,559 s
6,CC(C)N1CCN(Cc2ccc(C(=O)NCc3ccccc3)cc2)C(=O)C1=O,685 s
7,CSc1ccc(-c2noc(CN3C(=O)COc4ccc(C(C)(C)C)cc43)n2)cc1,1300 s
8,CCN1C(=O)C(C)(C(=O)Nc2ccccc2)Oc2cccnc21 (configuration not stated),859 s
9,CCOc1ccccc1CNC(=O)C1CCCN(c2nccnc2Sc2ccc(C)cc2)C1 (configuration not stated),1190 s
10,Cc1ccn2cc(C(=O)NCC3CCCCC3)nc2c1,714 s
11,O=C(NCCc1nc(-c2ccc3c(c2)OCO3)n[nH]1)c1cc(F)ccc1Cl,660 s
12,O=S(=O)(c1ccc(Br)cc1)N1CCC(c2noc(-c3ccccc3)n2)CC1,1180 s
13,CCOC(=O)c1nc(Nc2ccc(OC(C)C)cc2)c2ccccc2n1,888 s
14,CN(C)c1nn(CC(=O)NCc2cccc(C(F)(F)F)c2)cc1-c1ccccc1,984 s
15,Cc1ccc(Cn2nc3ccc(S(=O)(=O)N4CCCC4)cn3c2=O)cc1C,952 s
16,Cc1ccc(Nc2nc(C)cc(N3CCN(S(=O)(=O)c4cccc(C(F)(F)F)c4)CC3)n2)cc1,886 s
17,O=C1C2ON(c3ccccc3)C(c3ccccn3)C2C(=O)N1c1cccc(C(F)(F)F)c1 (configuration not stated),994 s
18,O=c1[nH]nc(SC(F)(F)C(F)(F)C(F)(F)F)c(=O)[nH]1,709 s
19,COc1ccc(CCc2nc3nccc(-c4ccccn4)n3n2)cc1,837 s
20,CCNS(=O)(=O)c1cccnc1Nc1ccc(F)c(Cl)c1,1040 s
21,Cc1ccccc1Nc1c(-c2ccc(N(C)C)cc2)nc2ccccn12,767 s
22,Cn1cccc1-c1noc(C2CCN(S(=O)(=O)c3ccc4c(c3)OCCO4)CC2)n1,1000 s
23,Fc1cccc(-c2noc(-c3ccc(NCCCN4CCC(N5CCCCC5)CC4)nc3)n2)c1,614 s

row,SMILES,RP-LC retention time
1,O=C(NCc1ccccc1)C1c2ccccc2CC(=O)N1Cc1ccccc1 (configuration not stated),850 s
2,Cc1cc(NC(=O)N2CCC(CN3CCCC(C)C3)CC2)ccc1Br (configuration not stated),682 s
3,CCCn1nc2n(c1=O)CCN(Cc1cn[nH]c1-c1ccc(OCC)c(Cl)c1)C2,708 s
4,COc1cc(NC(=O)N2CCC(c3cnn(-c4ccccc4)c3)CC2)cc(OC)c1OC,852 s
5,NC(=O)c1cc(N2CCCC2)nc2c(Cl)cccc12,607 s
6,CCN(Cc1ccccc1)S(=O)(=O)c1ccc2c(c1)CCCC(=O)N2,856 s
7,CN1CCN(c2ncc(C(=O)O)c(-c3ccccc3)n2)CC1,562 s
8,Cn1c(=O)n(C)c2cc(S(=O)(=O)N3CCN(c4ccccn4)CC3)c(Cl)cc21,602 s
9,Nc1nc(N2CCN(C3CCCCC3)CC2)ncc1C(=O)NCc1ccccc1,627 s
10,COc1ccc2c(n1)Sc1nc3ccccc3nc1N2,1040 s
11,C=CCNC(=O)Cc1nnc2cc(-c3nc(C4CC4)no3)ccn12,662 s
12,O=C(NCc1ccc(Br)cc1)c1sc2ncccc2c1-n1cccc1,1090 s
13,Cc1cc(C)n(-c2ccc(C(=O)NC3CCCCC3)cn2)n1,918 s
14,COc1ccccc1-c1nnc(-c2ccc(-n3ccnc3)nc2)o1,614 s
15,COc1ccc(CNC(=O)Cn2nc3c4sc(N(C)C)nc4ncn3c2=O)cc1,668 s
16,Fc1ccc(-c2nnc(-c3nc(NC4CCCCC4)c4ccccc4n3)o2)cc1,1110 s
17,COc1cccc(NC(=O)Cn2nc3n(c2=O)CCCC3)c1,634 s
18,CC1CCCCN1S(=O)(=O)c1ccc2nc(N3CCN(c4ccccc4F)CC3)ccc2c1 (configuration not stated),1180 s
19,CCc1nc2cc(-c3noc(Cc4ccccc4Br)n3)ccc2o1,1220 s
20,O=C(Nc1ccc2c(c1)OCO2)c1noc2c1CCCC2,883 s
21,CSc1ccc(Cl)c(C(=O)N2CC(=O)Nc3ccccc32)c1,796 s
22,Cc1ccc(-c2cc(C(=O)N3CCN(c4ccccn4)CC3)nn2C2CCS(=O)(=O)C2)cc1C (configuration not stated),674 s
23,O=C(c1ccc2nccnc2c1)N1CCC(c2nnc(C(F)(F)F)o2)CC1,653 s

row,SMILES,RP-LC retention time
1,CCc1cccc(C)c1NC(=O)C1CCCN(c2nnc(C)c3c(C)n(-c4ccccc4)nc23)C1 (configuration not stated),775 s
2,CCc1nc2c(NC(=O)c3ccc(OC)cc3)cccn2n1,819 s
3,Cc1c(C(=O)C(=O)NCc2ccc3c(c2)OCO3)c2ccccc2n1C,820 s
4,CC(=O)/C=C1\C(=O)N(C)c2ccccc21,858 s
5,CN(Cc1ccccc1)c1ncc(C(=O)O)c(-c2ccncc2)n1,675 s
6,Cc1nc2cc(-c3noc(-c4cccc(C(F)(F)F)c4)n3)ccc2o1,1220 s
7,Cc1ccc(NC(=O)Cn2cnc3c(sc4nc(-c5ccccc5)ccc43)c2=O)c(C)c1,1060 s
8,COc1ccc(-c2nc3cc(C)ccn3c2NC(=O)c2ccc([N+](=O)[O-])cc2)cc1,691 s
9,CCCS(=O)(=O)N1CC(N(C)Cc2cccnc2)C1,559 s
10,Cc1cccc(S(=O)(=O)N2CCC(c3noc(-c4ccc(F)cc4)n3)CC2)c1,1180 s
11,COc1ccc2c(c1)C=C(C(=O)NCc1ccc(OC)c(OC)c1)CO2,805 s
12,CCCN1CCN(C(=O)C2CCN(S(=O)(=O)c3ccc4c(c3)sc(=O)n4CCC)CC2)CC1,658 s
13,O=C(O)[C@H](CC(=O)N1C[C@H]2CCCC[C@H]2C1)Cc1ccccc1,915 s
14,Cc1cc(C)c(NC(=O)C2CCN(c3c(C(=O)N4CCOCC4)cnc4snc(C)c34)CC2)c(C)c1,826 s
15,CC(=O)c1ccc(NC(=O)Cn2c(N3CCc4ccccc4C3)nc(C)cc2=O)cc1,727 s
16,COc1ccccc1C1CC(c2ccccc2NS(C)(=O)=O)=NN1C(=O)c1ccco1 (configuration not stated),902 s
17,COCCc1noc(-c2ccc(=O)n(CC(=O)Nc3ccccc3F)c2)n1,695 s
18,Cc1cccc(-c2nnc(-c3cc(S(=O)(=O)N4CCCCC4)ccc3Cl)o2)c1,1210 s
19,Fc1ccc(CN2CCC[C@H]2c2nc(C3CCOCC3)n[nH]2)c(Cl)c1,586 s
20,CCOc1cc(=O)n2c(c1C(=O)Nc1cccc(Br)c1)CCCC2,802 s
21,CCc1ccc(CNC(=O)c2c(O)c3cccnc3[nH]c2=O)cc1,1040 s

# From the METLIN SMRT retention time set (Domingo-Almenara et al. 2019)
